Measured values taken from patent publication US20190210996A1, “NOVEL COMPOUNDS” (GLAXOSMITHKLINE INTELLECTUAL PROPERTY DEVELOPMENT LIMITED, priority 2016, published 2019).

Legend:
Format in all cases: cell-based
PTK2B = target: T1, PTK2B (Homo sapiens, UniProt Q14289); assay: Expression proteomics in THP-1 cells: PTK2B protein level
T1 construct: endogenous in cells; host or cells: THP-1
Description: (§1) THP-1 cells were seeded at a concentration of 3×10^6 cells in T175 flasks with 60 mL growth medium (RPMI1640+10% FBS). […] of a 10× compound solution prepared in growth medium (DMSO), CEREBLON_PROTAC) was added and the cells were treated for the indicated time points (6 or 24 h) at 37° C., 5% CO2. For harvesting the cells were collected into falcon tubes on ice, centrifuged and washed twice in cold PBS (Life technologies). After the last washing step the supernatant was removed and the pellets were snap-frozen in liquid N2 and stored at −80° C. and lysed in 2% SDS for 3 min at 95° C. in a thermomixer (Thermo Fisher Scientific), followed by digestion of DNA with Benzonase at 37° C. for 1.5 h. Lysate was cleared by centrifugation an protein concentration in supernatant was determined by BCA assay.
(§2) Leukemia 25, 89-100 (2011).
(§3) Samples were dried in vacuo and resuspended in 0.05% trifluoroacetic acid in water. Of the sample, 50% was injected into an Ultimate3000 nanoRLSC (Dionex, Sunnyvale, Calif.) coupled to a Q Exactive HF (Thermo Fisher Scientific). Peptides were trapped on a 5 mm×300 μm C18 column (Pepmap100, 5 μm, 300 Å, Thermo Fisher Scientific) in water with 0.05% TFA at 60° C. Separation was performed on custom 50 cm×[…] (ID) reversed-phase columns (Reprosil) at 55° C. Gradient elution was performed from 2% acetonitrile to 40% acetonitrile in 0.1% formic acid and 3.5% DMSO over 2 hours. Samples were online injected into Q-Exactive HF mass spectrometers operating with a data-dependent top 10 method. MS spectra were acquired by using 60.000 resolution and an ion target of 3×10^6. Higher energy collisional dissociation (HCD) scans were performed with 35% NCE at 30.000 resolution (at m/z 200), and the ion target settings was set to 2×10^5 so as to avoid coalescence (Werner, T. et al. Ion Coalescence of Neutron Encoded TMT 10-Plex Reporter Ions. Anal. Chem. 86, 3594-3601 (2014).
(§4) The first search was performed with 30 parts per million mass tolerance for peptide precursors and 30 mD (HCD) mass tolerance for fragment ions followed by a final search using recalibrated data with a 10 parts per million mass tolerance for peptide precursors and 20 mD (HCD) mass tolerance for fragment ions. Carbamidomethylation of cysteine residues and TMT modification of lysine residues were set as fixed modifications and methionine oxidation, and N-terminal acetylation of proteins and TMT modification of peptide N-termini were set as variable modifications. […]
(§5) Nat Biotech 29, 255-265 (2011). this measure is referred to as ion area Savitski, M. M. et al. Delayed Fragmentation and Optimized Isolation Width Settings for Improvement of Protein Identification and Accuracy of Isobaric Mass Tag Quantification on Orbitrap-Type Mass Spectrometers. […]

RPS6KA1 = target: T2, RPS6KA1 (Homo sapiens, UniProt Q15418); assay: Expression proteomics in THP-1 cells: RPS6KA1 protein level; details: RPS6KA1, THP-1 cells
T2 construct: endogenous in cells; host or cells: THP-1
Description: as §1, §2, §3, §4, §5

LATS1 = target: T3, LATS1 (Homo sapiens, UniProt O95835); assay: Expression proteomics in THP-1 cells: LATS1 protein level; details: LATS1, THP-1 cells
T3 construct: endogenous in cells; host or cells: THP-1
T3 sequence (O95835 1-1130): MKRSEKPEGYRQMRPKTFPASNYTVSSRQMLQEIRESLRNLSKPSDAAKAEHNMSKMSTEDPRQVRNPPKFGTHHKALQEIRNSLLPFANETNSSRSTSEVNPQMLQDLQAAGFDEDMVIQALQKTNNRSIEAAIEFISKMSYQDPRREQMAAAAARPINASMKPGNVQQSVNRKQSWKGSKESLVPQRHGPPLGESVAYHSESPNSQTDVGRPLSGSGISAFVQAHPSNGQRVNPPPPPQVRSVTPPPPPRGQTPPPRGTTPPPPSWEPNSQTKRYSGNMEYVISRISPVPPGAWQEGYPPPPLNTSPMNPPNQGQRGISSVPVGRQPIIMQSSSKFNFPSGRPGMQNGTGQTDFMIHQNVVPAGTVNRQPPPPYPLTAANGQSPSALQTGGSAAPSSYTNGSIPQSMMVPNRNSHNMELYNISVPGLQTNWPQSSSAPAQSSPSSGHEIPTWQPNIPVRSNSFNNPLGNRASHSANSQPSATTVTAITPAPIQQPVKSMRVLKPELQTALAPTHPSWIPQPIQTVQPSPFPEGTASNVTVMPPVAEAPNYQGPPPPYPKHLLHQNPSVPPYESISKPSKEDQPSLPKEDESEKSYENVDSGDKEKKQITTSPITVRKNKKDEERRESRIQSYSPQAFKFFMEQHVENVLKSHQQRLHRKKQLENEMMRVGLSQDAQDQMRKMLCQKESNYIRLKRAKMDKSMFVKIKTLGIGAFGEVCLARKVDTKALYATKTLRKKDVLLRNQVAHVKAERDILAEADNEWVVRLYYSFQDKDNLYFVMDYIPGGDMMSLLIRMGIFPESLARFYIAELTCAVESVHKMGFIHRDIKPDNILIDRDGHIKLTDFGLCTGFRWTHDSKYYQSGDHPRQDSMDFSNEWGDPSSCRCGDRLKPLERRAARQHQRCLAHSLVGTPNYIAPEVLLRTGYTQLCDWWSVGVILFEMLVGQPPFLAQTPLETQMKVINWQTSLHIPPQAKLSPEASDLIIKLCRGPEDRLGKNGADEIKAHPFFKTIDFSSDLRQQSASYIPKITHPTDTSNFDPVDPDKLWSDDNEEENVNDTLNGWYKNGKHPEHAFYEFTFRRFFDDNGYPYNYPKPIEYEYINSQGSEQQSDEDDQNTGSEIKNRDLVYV
Description: as §1, §2, §3, §4, §5

T1 sequence (Q14289 whole entry): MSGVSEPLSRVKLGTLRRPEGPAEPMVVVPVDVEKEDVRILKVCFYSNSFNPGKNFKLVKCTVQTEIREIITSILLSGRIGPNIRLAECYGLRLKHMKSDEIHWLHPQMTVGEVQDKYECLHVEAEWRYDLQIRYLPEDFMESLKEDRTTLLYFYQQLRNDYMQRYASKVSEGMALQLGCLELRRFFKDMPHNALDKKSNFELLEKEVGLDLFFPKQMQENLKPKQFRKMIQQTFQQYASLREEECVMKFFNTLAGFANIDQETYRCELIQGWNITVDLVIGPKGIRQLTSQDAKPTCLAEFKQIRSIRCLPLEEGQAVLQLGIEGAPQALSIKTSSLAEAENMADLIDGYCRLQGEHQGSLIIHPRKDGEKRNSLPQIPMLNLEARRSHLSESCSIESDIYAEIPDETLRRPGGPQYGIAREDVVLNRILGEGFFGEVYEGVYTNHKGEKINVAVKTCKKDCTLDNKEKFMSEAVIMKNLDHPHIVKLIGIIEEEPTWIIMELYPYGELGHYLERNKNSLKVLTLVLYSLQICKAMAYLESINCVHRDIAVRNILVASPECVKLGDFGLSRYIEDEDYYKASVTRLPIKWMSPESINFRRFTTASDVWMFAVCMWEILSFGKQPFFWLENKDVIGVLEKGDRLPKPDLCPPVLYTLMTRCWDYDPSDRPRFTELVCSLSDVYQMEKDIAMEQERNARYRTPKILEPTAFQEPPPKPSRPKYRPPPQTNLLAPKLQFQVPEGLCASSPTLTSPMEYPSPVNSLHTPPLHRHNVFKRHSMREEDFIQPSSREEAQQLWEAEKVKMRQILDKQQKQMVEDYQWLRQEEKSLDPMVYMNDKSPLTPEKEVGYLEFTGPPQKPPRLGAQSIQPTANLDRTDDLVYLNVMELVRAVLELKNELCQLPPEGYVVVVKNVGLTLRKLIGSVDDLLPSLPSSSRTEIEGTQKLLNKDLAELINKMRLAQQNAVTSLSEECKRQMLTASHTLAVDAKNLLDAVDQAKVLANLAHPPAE
T2 sequence (Q15418 whole entry): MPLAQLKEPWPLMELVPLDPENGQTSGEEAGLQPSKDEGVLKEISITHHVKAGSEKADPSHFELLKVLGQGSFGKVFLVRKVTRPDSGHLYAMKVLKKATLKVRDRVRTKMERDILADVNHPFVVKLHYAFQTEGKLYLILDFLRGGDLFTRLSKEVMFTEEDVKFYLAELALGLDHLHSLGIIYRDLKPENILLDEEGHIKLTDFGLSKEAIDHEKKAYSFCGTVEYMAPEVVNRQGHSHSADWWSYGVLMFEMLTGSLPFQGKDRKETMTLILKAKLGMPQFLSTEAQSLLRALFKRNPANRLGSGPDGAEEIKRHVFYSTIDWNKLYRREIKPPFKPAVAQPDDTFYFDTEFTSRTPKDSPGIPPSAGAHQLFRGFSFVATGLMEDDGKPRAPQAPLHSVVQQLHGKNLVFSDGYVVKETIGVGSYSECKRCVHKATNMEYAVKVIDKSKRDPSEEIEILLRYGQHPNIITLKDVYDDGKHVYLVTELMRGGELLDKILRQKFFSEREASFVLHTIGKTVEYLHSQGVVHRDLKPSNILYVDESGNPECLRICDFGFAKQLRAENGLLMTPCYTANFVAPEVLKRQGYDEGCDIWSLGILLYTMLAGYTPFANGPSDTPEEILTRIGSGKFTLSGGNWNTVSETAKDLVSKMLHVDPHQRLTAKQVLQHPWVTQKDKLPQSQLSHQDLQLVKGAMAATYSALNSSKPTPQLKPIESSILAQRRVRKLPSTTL

`CNC(=O)c1ccccc1Nc1nc(Nc2ccc(N3CCN(CCOCCOCCOCCOCC(=O)Nc4cccc5c4CN(C4CCC(=O)NC4=O)C5=O)CC3)cc2)ncc1Cl.O=CO` (stereo not drawn) [CEREBLON_PROTAC, 14-(4-(4-((5-Chloro-4-((2-(methylcarbamoyl)phenyl)amino)pyrimidin-2-yl)amino)phenyl)piperazin-1-yl)-N-(2-(2,6-dioxopiperidin-3-yl)-1-oxoisoindolin-4-yl)-3,6,9,12-tetraoxatetradecan-1-amide formate] was tested, and the “log2 rel. fc. to vehicle control” value (PTK2B; 24 h 0.1 μM, n = 1) was −2.34, the “log2 rel. fc. to vehicle control” value (PTK2B; 24 h 0.1 μM, n = 2) was −2.50 and the “log2 rel. fc. to vehicle control” value (PTK2B; 24 h 1 μM, n = 1) was −2.09. The “log2 rel. fc. to vehicle control” value (PTK2B; 24 h 1 μM, n = 2) was −2.18, the “log2 rel. fc. to vehicle control” value (RPS6KA1; 24 h 0.1 μM, n = 1) was −1.65 and the “log2 rel. fc. to vehicle control” value (RPS6KA1; 24 h 0.1 μM, n = 2) was −1.55. For the same molecule, the “log2 rel. fc. to vehicle control” value (RPS6KA1; 24 h 1 μM, n = 1) was −1.86, the “log2 rel. fc. to vehicle control” value (RPS6KA1; 24 h 1 μM, n = 2) was −1.93 and the “log2 rel. fc. to vehicle control” value (LATS1; 24 h 0.1 μM, n = 1) was −1.02. For the same molecule, the “log2 rel. fc. to vehicle control” value (LATS1; 24 h 0.1 μM, n = 2) was −1.01, the “log2 rel. fc. to vehicle control” value (LATS1; 24 h 1 μM, n = 1) was −1.46 and the “log2 rel. fc. to vehicle control” value (LATS1; 24 h 1 μM, n = 2) was −1.55.
